# Biological target: TENT4B (PAPD5) (Homo sapiens, UniProt Q8NDF8)
# Test: ATP depletion polyadenylation assay
# Type: biochemical
# TENT4B (PAPD5), sequence (Q8NDF8 whole entry): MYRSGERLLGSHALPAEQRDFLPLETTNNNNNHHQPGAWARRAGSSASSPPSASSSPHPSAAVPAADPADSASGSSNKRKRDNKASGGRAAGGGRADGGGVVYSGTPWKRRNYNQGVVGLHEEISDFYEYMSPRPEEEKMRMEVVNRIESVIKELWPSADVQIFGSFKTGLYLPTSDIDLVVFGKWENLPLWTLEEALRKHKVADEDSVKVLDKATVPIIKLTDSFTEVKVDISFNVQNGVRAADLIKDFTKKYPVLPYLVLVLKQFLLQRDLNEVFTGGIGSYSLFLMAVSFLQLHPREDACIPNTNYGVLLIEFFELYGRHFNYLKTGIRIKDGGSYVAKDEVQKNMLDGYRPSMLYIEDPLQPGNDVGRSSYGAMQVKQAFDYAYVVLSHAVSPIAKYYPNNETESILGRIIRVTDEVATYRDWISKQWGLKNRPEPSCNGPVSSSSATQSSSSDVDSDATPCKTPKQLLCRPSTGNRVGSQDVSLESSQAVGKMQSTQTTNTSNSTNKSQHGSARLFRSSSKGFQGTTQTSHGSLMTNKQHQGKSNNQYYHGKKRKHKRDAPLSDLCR
row,IC50 [nM],Compound
1,1.3,COCCCOc1cc2c(cc1OC)-c1cc(=O)c(C(=O)O)cn1[C@H](C(C)C)C2 [RG7834]
2,76,COCCCOc1cc2c(cc1OC)-c1cc(=O)c(C(=O)O)cn1[C@@H](C(C)C)C2 [RO0321]
